Data on 20 sequences can be found in publication PMC5312321, “A general strategy to optimize immunogenicity of HLA-B*0702 restricted cryptic peptides from tumor associated antigens: Design of universal neo-antigen like tumor vaccines for HLA-B*0702 positive patients” (Oncotarget, 2016).

Entries after “also recorded” stand apart in the source; their conditions may differ. Marks after values point to notes of the source that are not given here. Bounds are passed on as bounds.

For one test, the target named is T1, HLA-B*0702 (Homo sapiens, UniProt P01889).
T1 construct: expressed in transfected cells; host or cells: human T2-B7 cells (T2 transfected with HLA-B*0702)
The experiment in a line: Measurement of peptide relative affinity to HLA-B*0702 (surface expression on T2-B7 cells). It is filed as cell-based. Particulars: for RA (Relative Affinity): 37°C 16 hours, peptide 100 μM to 0.1 μM, ME-1 mAb staining, RA = concentration inducing 20% of HLA-B*0702 expression / that of reference R10V, mean ± SD, at least three experiments, ≥ 10 = 10 or not measurable; for binding to / affinity for HLA-B*0702 (in words): relative to reference peptide R10V. The protocol:
The protocol used has been described previously. Briefly, T2-B7 cells were incubated at 37°C for 16 hours with peptides concentrations ranging from 100 μM to 0.1 μM (100 μM, 10 μM, 1 μM and 0.1μM), and then stained with ME-1 monoclonal antibody (mAb) to quantify the surface expression of HLA-B*0702. For each peptide concentration, the HLA-B*0702 specific staining was calculated as the percentage of staining obtained with 100 μM of the reference peptide CMV265–274 (R10V; […], SEQ ID NO: 9). The relative affinity (RA) was determined as: RA = (Concentration of each peptide that induces 20% of HLA-B*0702-expression/Concentration of the reference R10V peptide that induces 20% of HLA-B*0702 expression). In case of non-binders peptide, RA is not evaluable since the 20% of HLA-B*0702 expression is not reach even with the highest concentration of peptide.

For test [1], the system named is HLA-B*0702 transgenic mice. The experiment in a line: Vaccination of HLA-B*0702 transgenic mice; specific CTLs detected by cytotoxicity or IFNγ ELISPOT. In kind it is in vivo, mouse. The following applies: for immunogenicity in HLA-B*0702 transgenic mice (in words): specific CTL induction after vaccination, cytotoxicity (ratio 30/1) or IFNγ ELISpot; for Immunogenicity (number of responding mice/number of vaccinated mice): native peptides, 100 μg peptide in IFA s.c. with HBVcore128 helper epitope, twice at two weeks interval. The method, then: The HLA-B7 H-2 class-I knockout mice were previously described.
Mice were injected subcutaneously with 100 μg of peptide emulsified in Incomplete Freund's Adjuvant (IFA) in the presence of 150 μg of the I-A^b restricted HBVcore128 T helper epitope ([…]) twice at two weeks interval.
A particular protocol was applied for MAGE-A 274L9, with two injections of this peptide at two weeks interval and 15 days later one injection with each one of the native peptide.
On day 6 of culture the bulk responder populations were tested for specific cytotoxicity. […] Percentage of specific lysis was determined as: % Lysis = (Experimental Release-Spontaneous Release) / (Maximal Release-Spontaneous Release) × 100. Spontaneous release is obtained using medium only, maximum release with HCl 0.1 M.
Seven days after the last vaccination, spleens were removed and T cells were isolated by Ficoll centrifugation and tested ex vivo for the recognition of 10 μM of either the native or optimized peptide. IFNγ producing T cells were quantified by ELISpot using the Diaclone Kit Murine IFNγ ELISpot (Besançon, France) according to manufacturer's recommendations. 250 000 spleen T cells were distributed per well and tested for the recognition of 10 μM of either the native or optimized peptide. Positive control was Concanavalin A and negative control was medium alone. All conditions were tested in sixplicates.

For “APLSLGLET [Hsp70_397, Hsp70 derived native cryptic peptide]”, at HLA-B*0702, the “RA (Relative Affinity)” value was at least 10 and the “binding to / affinity for HLA-B*0702 (in words)” value (from here on “binding to / affinity”) was “low affinity”. Besides, the “immunogenicity in HLA-B*0702 transgenic mice (in words)” value (shortened to “immunogenicity … (in words)”) in test [1] is reported as “only the high affinity TERT4 was immunogenic”.
Take “APRCRAVRSL [TERT4, TERT derived peptide with complete consensus motif A1P2R3L9, control, dominant peptide]”: the “RA (Relative Affinity)” value on HLA-B*0702 (SD) is 0.74 ± 0.12. At HLA-B*0702, the “binding to / affinity” value is “strongly bind to HLA-B*0702; also recorded: strong affinity”. For the same sequence, the “immunogenicity … (in words)” value in test [1] was “immunogenic”.
“APRGVPQIEV [HSP70_466, HSP70 derived native peptide]”: in test [1], the “Immunogenicity (number of responding mice/number of vaccinated mice)” value is reported as 3/3 and the “immunogenicity … (in words)” value was “immunogenic”.
For the sequence “APRSLGLEL [Hsp70_397 R3L9, optimized Hsp70_397, arginine at position 3 and leucine at C-terminal position]”, the “RA (Relative Affinity)” value on HLA-B*0702 (SD) worked out at 1 ± 0.6. The “binding to / affinity” value on HLA-B*0702 is reported as “high HLA-B*0702 affinity”.
As to “APRSPLAPS [Her2/neu1069, Her2/neu derived native peptide]”, in test [1], the “Immunogenicity (number of responding mice/number of vaccinated mice)” value is recorded as 5/7 and the “immunogenicity … (in words)” value is “immunogenic”.
Take “APRTKAEML [MAGE-A1_121 A1R3, optimized MAGE-A1_121, alanine at position 1 and arginine at position 3]”: the “RA (Relative Affinity)” value on HLA-B*0702 (SD) is 2.36 ± 0.28. Moreover, the “binding to / affinity” value on HLA-B*0702 is on record as “high HLA-B*0702 affinity”.
For the sequence “APVTKAEML [MAGE-A1_121 A1, MAGE-A1_121 with alanine at position 1]”, at HLA-B*0702, the “RA (Relative Affinity)” value was at least 10 and the “binding to / affinity” value was “fail to bind to HLA-B*0702 with high affinity”.
As to “DPRRLVQLL [TERT444, TERT derived native cryptic peptide]”, at HLA-B*0702, the “RA (Relative Affinity)” value is recorded as at least 10 and the “binding to / affinity” value is on record as “low affinity”. Also, the “immunogenicity … (in words)” value in test [1] is “only the high affinity TERT4 was immunogenic; also recorded: non-immunogenic”.
As to “EPFTKAEML [MAGE-A2_121, MAGE-A derived native cryptic peptide]”, on HLA-B*0702, the “RA (Relative Affinity)” value is given as at least 10 and the “binding to / affinity” value is “low affinity”.
In the same order, the values of “EPITKAEIL [MAGE-A4_121, MAGE-A derived native cryptic peptide]” are at least 10 and “low affinity”.
For “EPVTKAEML [MAGE-A1_121, MAGE-A derived native cryptic peptide]” the same measures were at least 10 and “low affinity”.
Regarding “GPKHSDCLA [Her2/neu246, Her2/neu derived native peptide]”, in test [1], the “Immunogenicity (number of responding mice/number of vaccinated mice)” value is recorded as 0/9 and the “immunogenicity … (in words)” value is “non immunogenic”.
In the same order, the values of “GPRALAETS [MAGE-A1_267, native peptide shared by MAGE-A1 and MAGE-A4]” are 0/3 and “non immunogenic”.
For “GPRALIETS [MAGE-A2_274, native peptide shared by MAGE-A2 and MAGE-A6]” the same measures were 0/3 and “non immunogenic”.
In the same order, the values of “GPRALVETS [MAGE-A3_274, native peptide shared by MAGE-A3 and MAGE-A12]” are 2/3* and “very weak immunogenicity; also recorded: very weakly immunogenic”.
With “SPKANKEIL [Her2/neu760, Her2/neu derived native peptide]”, in test [1], the “Immunogenicity (number of responding mice/number of vaccinated mice)” value is 4/9 and the “immunogenicity … (in words)” value is “immunogenic”.
For the sequence “SPREGPLPA [Her2/neu1151, Her2/neu derived native peptide]”, in test [1], the “Immunogenicity (number of responding mice/number of vaccinated mice)” value is 1/3. The figures for the “immunogenicity … (in words)” value in test [1] (listed as HER2/neu1151) and in test [1] (listed as HER-2/neu1151) were “immunogenic” and “very weakly immunogenic”, respectively.
With “SPRLQLSND [CEA188, CEA derived native peptide]”, in test [1], the “Immunogenicity (number of responding mice/number of vaccinated mice)” value was 0/3 and the “immunogenicity … (in words)” value is “non immunogenic”.
Take “YPEEISSMVL [Hsp70_115, Hsp70 derived native cryptic peptide]”: at HLA-B*0702, the “RA (Relative Affinity)” value was at least 10 and the “binding to / affinity” value is reported as “low affinity”. Also, the “immunogenicity … (in words)” value in test [1] is recorded as “only the high affinity TERT4 was immunogenic”.
For “YPVTNAVITV [Hsp70_137, Hsp70 derived native cryptic peptide]” the same measures were at least 10, “low affinity” and “only the high affinity TERT4 was immunogenic”.
